“And” between values parts separate entries of the source, which are not always exact repeats. Identical values can stand only once.
Experiments:
[1] = molecular target: T1, human recombinant P2X7 receptors (Homo sapiens, UniProt Q99572); assay: Ethidium Accumulation Assay; format: cell-based; settings: blocking ATP (1 mM) responses; HEK293 cells expressing human P2X7; read-out: pIC50 in the Ethidium Accumulation Assay (or a slightly modified version thereof), human P2X7 receptor antagonist activity (converted)
T1 construct: expressed in transfected cells
T1 sequence (Q99572 1-595): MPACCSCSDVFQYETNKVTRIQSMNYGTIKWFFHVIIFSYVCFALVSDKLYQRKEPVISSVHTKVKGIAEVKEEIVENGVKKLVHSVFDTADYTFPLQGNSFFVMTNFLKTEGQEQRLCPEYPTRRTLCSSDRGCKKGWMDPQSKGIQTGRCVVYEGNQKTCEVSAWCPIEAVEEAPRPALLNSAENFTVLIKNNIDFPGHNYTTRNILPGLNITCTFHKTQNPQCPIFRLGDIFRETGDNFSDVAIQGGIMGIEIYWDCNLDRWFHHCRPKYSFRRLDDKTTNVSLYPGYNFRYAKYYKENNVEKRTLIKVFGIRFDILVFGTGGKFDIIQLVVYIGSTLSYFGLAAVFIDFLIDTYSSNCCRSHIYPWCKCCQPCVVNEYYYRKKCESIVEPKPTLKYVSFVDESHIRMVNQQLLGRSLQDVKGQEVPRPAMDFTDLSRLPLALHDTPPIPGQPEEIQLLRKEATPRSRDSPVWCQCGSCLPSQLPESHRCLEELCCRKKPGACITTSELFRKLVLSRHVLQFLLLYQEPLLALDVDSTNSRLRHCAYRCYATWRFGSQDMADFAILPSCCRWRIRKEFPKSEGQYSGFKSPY
Procedure: Studies were performed using NaCl assay buffer of the following composition: 140 mM NaCl, 10 mM HEPES [4-(2-hydroxyethyl)-1-piperazine-1-ethanesulfonic acid], 5 mM N-methyl-D-glucamine, 5.6 mM KCl, 10 mM D-glucose, 0.5 mM CaCl2 (pH 7.4).
Human Embryonic Kidney (HEK) 293 cells, stably expressing human recombinant P2X7 receptors, were grown in poly-D-lysine pretreated 96 well plates for 18-24 hours. (The cloning of the human P2X7 receptor is described in U.S. Pat. No. 6,133,434, e.g. see Example 3 therein). The cells were washed twice with 350 μl of the assay buffer, before addition of 50 μl of the assay buffer containing the putative P2X7 receptor antagonist compound. (A small amount of dimethyl sulfoxide, for initially dissolving the compound, is optionally used and present in this 50 μl test compound sample.) The cells were then incubated at room temperature (19-21° C.) for 30 min before addition of ATP and ethidium (100 μM final assay concentration). The ATP concentration was chosen to be close to the EC80 for the receptor type and was 1 mM for studies on the human P2X7 receptor. Incubations were continued for 8 or 16 min and were terminated by addition of 25 μl of 1.3M sucrose containing 4 mM of the P2X7 receptor antagonist Reactive Black 5 (Aldrich). Cellular accumulation of ethidium was determined by measuring fluorescence (excitation wavelength of 530 nm and emission wavelength of 620 nm) from below the plate with a Canberra Packard Fluorocount (14 Station Road, Pangbourne, Reading, Berkshire RG8 7AN, United Kingdom) or a FlexStation II 384 from Molecular Molecular Devices (660-665 Eskdale Road, Wokingham, Berkshire RG41 5TS, United Kingdom). Antagonist pIC50 values for blocking ATP responses were determined using iterative curve fitting techniques.

[2] = molecular target: T1, human recombinant P2X7 receptors; assay: Fluorescent Imaging Plate Reader (FLIPR) Ca Assay; format: cell-based; settings: blocking BzATP (60 μM) responses; HEK293 or U-2OS cells expressing human P2X7; read-out: pIC50 in the FLIPR Ca Assay (or a slightly modified version thereof), human P2X7 receptor antagonist activity (converted)
Procedure: Studies were performed using NaCl assay buffer of the following composition for human P2X7: 137 mM NaCl; 20 mM HEPES [4-(2-hydroxyethyl)-1-piperazine-1-ethanesulfonic acid]; 5.37 mM KCl; 4.17 mM NaHCO3; 1 mM CaCl2; 0.5 mM MgSO4; and 1 g/L of D-glucose (pH 7.4).
Human Embryonic Kidney (HEK) 293 cells, stably expressing human recombinant P2X7 receptors, were grown in poly-D-lysine pretreated 384 well plates for 24 hours at […] (for a time sufficient for growth of a homogeneous layer of cells at the bottom of the wells). Alternatively, human osteosarcoma (U-20S) cells (commercially available), transduced with modified Baculovirus (BacMam) vector to deliver the gene coding for human P2X7 receptor (i.e. transiently expressing human recombinant P2X7 receptors), were grown in substantially the same conditions as for the HEK293 cells except that the well plates were not pre-treated with poly-D-lysine. (The cloning of the human P2X7 receptor is described in U.S. Pat. No. 6,133,434, e.g. see Example 3 therein). The cells were washed three times with 80 μl of assay buffer, loaded for 1 h at 37° C. with 2 μM Fluo-4-AM [4-(6-acetoxymethoxy-2,7-difluoro-3-oxo-9-xanthenyl)-4′-methyl-2,2′-(ethylenedioxy)dianiline-N,N,N′,N′-tetraacetic acid tetrakis(acetoxymethyl) ester], a Ca^2+-sensitive, cell-permeable, fluorescent dye (Tef Labs. Inc., 9415 Capitol View Drive, Austin, Tex. 78747, USA), washed three times again (3×80 μl), and left with 30 μl buffer before the addition of 10 μl of the assay buffer containing the putative P2X7 receptor antagonist compound, the compound being added at 4× the final assay concentration chosen. The solution of the putative P2X7 receptor antagonist compound was created by (i) dissolving the compound in dimethyl sulfoxide (DMSO) to create a stock solution in DMSO at 200× the final assay concentration, and (ii) mixing 1 μl of the stock solution of the compound in DMSO with 50 μl of the assay buffer to create a solution at about 4× the final assay concentration. The cells were then incubated at room temperature for 30 mins before addition (online, by FLIPR384 or FLIPR3 instrument (Molecular Devices, 1311 Orleans Drive, Sunnyvale, Calif. 94089-1136, USA)) of benzoylbenzoyl-ATP (BzATP) such as to create a 60 μM final assay concentration of BzATP (BzATP was added at 5× this final concentration). The BzATP concentration was chosen to be close to the EC80 for the receptor type. Incubations and reading were continued for 90 sec, and intracellular calcium increase was determined by measuring fluorescence (excitation wavelength of 488 nm and emission wavelength of 516 nm) from below the plate, with FLIPR charged-coupled device (CCD) camera. Antagonist pIC50 values for blocking BzATP responses were determined using iterative curve fitting techniques.

| IC50 [1] | IC50 [2] [nM] | Compound |
| --- | --- | --- |
| < 3160 nM and 31.6 to 316 nM and 50.1 to 63.1 nM | ≤ 20000 | CN1CC(C(=O)NCc2cccc(C(F)(F)F)c2Cl)CC1=O (centres unmarked) [Example 5, N-{[2-chloro-3-(trifluoromethyl)phenyl]methyl}-1-methyl-5-oxo-3-pyrrolidinecarboxamide] |
| < 3160 nM and 31.6 to 316 nM | ≤ 20000 | CN1CC(C(=O)NCc2ccc(Cl)cc2Cl)CC1=O (centres unmarked) [Example 6, N-[(2,4-dichlorophenyl)methyl]-1-methyl-5-oxo-3-pyrrolidinecarboxamide] |
| < 3160 nM and 31.6 to 316 nM | ≤ 20000 | CCN1CC(C(=O)NCc2ccc(Cl)cc2Cl)CC1=O (centres unmarked) [Example 7, N-[(2,4-dichlorophenyl)methyl]-1-ethyl-5-oxo-3-pyrrolidinecarboxamide] |
| < 3160 nM and 31.6 to 316 nM | ≤ 20000 | CCN1CC(C(=O)NCc2cccc(C(F)(F)F)c2Cl)CC1=O (centres unmarked) [Example 8, N-{[2-chloro-3-(trifluoromethyl)phenyl]methyl}-1-ethyl-5-oxo-3-pyrrolidinecarboxamide] |
| < 3160 nM and 31.6 to 316 nM | ≤ 20000 | CC(C)CN1CC(C(=O)NCc2cccc(C(F)(F)F)c2Cl)CC1=O (centres unmarked) [Example 9, N-{[2-chloro-3-(trifluoromethyl)phenyl]methyl}-1-(2-methylpropyl)-5-oxo-3-pyrrolidinecarboxamide] |
| < 3160 nM and 31.6 to 316 nM | ≤ 20000 | CC(C)CN1CC(C(=O)NCc2ccc(Cl)cc2Cl)CC1=O (centres unmarked) [Example 10, N-[(2,4-dichlorophenyl)methyl]-1-(2-methylpropyl)-5-oxo-3-pyrrolidinecarboxamide] |
| < 3160 nM and 31.6 to 316 nM | ≤ 20000 | O=C(NCc1cccc(C(F)(F)F)c1Cl)C1CC(=O)N(Cc2ccccc2)C1 (centres unmarked) [Example 11, N-{[2-chloro-3-(trifluoromethyl)phenyl]methyl}-5-oxo-1-(phenylmethyl)-3-pyrrolidinecarboxamide] |
| < 3160 nM and 31.6 to 316 nM | ≤ 20000 | O=C(NCc1ccc(Cl)cc1Cl)C1CC(=O)N(Cc2ccccc2)C1 (centres unmarked) [Example 12, N-[(2,4-dichlorophenyl)methyl]-5-oxo-1-(phenylmethyl)-3-pyrrolidinecarboxamide] |

Continued, compound first:

| Compound | IC50 [1] | IC50 [2] [nM] |
| --- | --- | --- |
| CN1CC(C(=O)NCc2cccc(C(F)(F)F)c2Cl)CC1=O (single isomer, unassigned) [5A stereoisomer 1] | 158 to 200 nM | – |
| CN1CC(C(=O)NCc2cccc(C(F)(F)F)c2Cl)CC1=O (single isomer, unassigned) [5A stereoisomer 2] | 39.8 to 50.1 nM | – |
| C[C@H](c1ccccc1)N1CC(C(=O)NCc2ccc(F)cc2Cl)CC1=O (stereo partly drawn) [Example 1, N-[(2-chloro-4-fluorophenyl)methyl]-5-oxo-1-[(1R)-1-phenylethyl]-3-pyrrolidinecarboxamide] | < 3160 nM | ≤ 20000 |
| O=C(NCc1ccc(F)cc1Cl)C1CC(=O)N(C2CC2)C1 (centres unmarked) [Example 2, N-[(2-Chloro-4-fluorophenyl)methyl]-1-cyclopropyl-5-oxo-3-pyrrolidinecarboxamide] | < 3160 nM | ≤ 20000 |
| O=C(NCc1ccc(Cl)cc1Cl)C1CC(=O)N(C2CC2)C1 (centres unmarked) [Example 3, 1-Cyclopropyl-N-[(2,4-dichlorophenyl)methyl]-5-oxo-3-pyrrolidinecarboxamide] | < 3160 nM and 31.6 to 316 nM | ≤ 20000 |
| O=C(NCc1cccc(C(F)(F)F)c1Cl)C1CC(=O)N(C2CC2)C1 (centres unmarked) [Example 4, N-{[2-chloro-3-(trifluoromethyl)phenyl]methyl}-1-cyclopropyl-5-oxo-3-pyrrolidinecarboxamide] | < 3160 nM and 31.6 to 316 nM | ≤ 20000 |

From patent US20100292295A1, “5-OXO-3-PYRROLIDINECARBOXAMIDE DERIVATIVES AS P2X7 MODULATORS” (GLAXO GROUP LIMITED, priority 2007, published 2010)
